Data on twelve compounds can be found in PubChem BioAssay (NCI).

Holding throughout (assay): NCI tumour cell line growth inhibition, 48 h
Experiment [1] deals with RPMI-8226 leukemia.
Experiment [2] concerns CCRF-CEM leukemia.
Experiment [3] has as its system SF-295 CNS.
The subject of experiment [4] is T-47D breast.
Experiment [5] concerns LOX IMVI melanoma.
Experiment [6] relates to SR leukemia.
For experiment [7], the system named is HT29 colon.
For experiment [8], the system named is BT-549 breast.
Experiment [9] has as its system OVCAR-5 ovarian.
For experiment [10], the system named is SF-539 CNS.

SMILES strings stand for the structures.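 Compound exposure: 48 hours, 5 concentrations, 96-well plates. Abbreviation: GI50, concentration required for 50% inhibition of growth. TGI: concentration producing complete growth inhibition.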

`c1ccc(CNCCN(CCNCc2ccccn2)Cc2ccc3ccccc3c2)nc1`: the GI50 is 2.67 µM in [1]; 3.08 µM in experiment [2]; 1.42 µM in experiment [3]; 2.59 µM in experiment [4]; 2 µM in experiment [5]; 2.88 µM in [6]. For the same compound, the GI50 in experiment [7] was 3.04 µM; in experiment [8], 2.87 µM; in [9], 1.63 µM; in [10], 1.64 µM. Further, the TGI in experiment [1] is 6.65 µM; in [2], 10.3 µM; in experiment [3], 3.55 µM; in experiment [4], 9.06 µM; in [5], 4.5 µM; in experiment [6], 7.83 µM. The TGI came out at 7.93 µM in experiment [7], 10.9 µM in experiment [8], 4.03 µM in [9] and 3.1 µM in [10].

Turning to `Oc1c(Cl)cc(Cl)c2ccc(Cn3cc(-c4ccc(C(F)(F)F)cc4)nn3)nc12`, the GI50 in experiment [1] was 1.25 µM; in [2] it was 0.357 µM; in [3] it was 17.2 µM; in experiment [4] it was 1.88 µM; in [5], 0.299 µM; in experiment [6], 0.651 µM. Also, the GI50 was 2.46 µM in experiment [7], 1.94 µM in experiment [8], 2.27 µM in experiment [9] and 1.52 µM in [10]. Also, the TGI in [1] is 6.33 µM; in experiment [2], > 100 µM; in [3], 32.1 µM; in experiment [4], 5.59 µM; in experiment [5] it was 1.11 µM; in experiment [6], > 100 µM. Further, the TGI amounted to 6.75 µM in experiment [7], 5.22 µM in [8], 7.59 µM in experiment [9] and 2.94 µM in [10].

With `Clc1ccccc1-c1nnc2c(Cc3ccccc3)nc3ccccc3n12`, the GI50 in [1] is 5.64 µM; in experiment [2], 7.11 µM; in experiment [3], 8.12 µM; in experiment [4], 5.77 µM; in experiment [5] it was 3.5 µM; in experiment [6], 3.91 µM. Besides, the GI50 is 8.71 µM in experiment [7], > 25.9 µM in experiment [8], > 100 µM in experiment [9] and 24.2 µM in experiment [10]. Also, the TGI in [1], in experiment [2], in experiment [3], in [4], in [5] and in experiment [6] was > 100 µM in each case. For the same compound, the TGI in experiment [7], in experiment [8], in experiment [9] and in experiment [10] was > 100 µM throughout.

As for `CCCCCCCCCCCCOC1C(CNC(=O)C2OC3OC(C)(C)OC3C2NC(=O)CN2CCN(c3ccc(OC)cc3)CC2)OC2OC(C)(C)OC21` (stereo not given), the GI50 is 2.13 µM in experiment [1]; 4.1 µM in experiment [2]; 5.12 µM in experiment [3]; 4.33 µM in experiment [4]; 3.71 µM in experiment [5]; 2.86 µM in experiment [6]. Besides, the GI50 in experiment [7] is 2.12 µM; in experiment [8], 6.19 µM; in experiment [9], 2.52 µM; in [10], 6.09 µM. In addition, the TGI in experiment [1] was determined as 4.73 µM; in experiment [2] it was 16.9 µM; in [3] it was 18.4 µM; in experiment [4], 23.4 µM; in experiment [5], 12.3 µM; in experiment [6], 6.07 µM. Also, the TGI was found to be 5.12 µM in [7], 17.4 µM in experiment [8], 7.5 µM in [9] and 22 µM in [10].

On to `COC(=O)c1oc2c(C(=O)/C=C/c3ccc(OC)cc3)c(OCCN(C)C)ccc2c1C`, for which the GI50 in experiment [1] is 3.83 µM; in [2] it was 2.24 µM; in experiment [3] it was 14.2 µM; in experiment [4], 3.1 µM; in experiment [5], 4.52 µM; in [6], 2.37 µM. The GI50 in [7] was 3.72 µM; in experiment [8], 4.88 µM; in [9], 15.8 µM; in experiment [10], 11.3 µM. Moreover, the TGI in experiment [1] is 20.5 µM; in experiment [2] it was 6.93 µM; in [3] it was 29.3 µM; in experiment [4], 16.8 µM; in experiment [5], 17 µM; in experiment [6], 7.38 µM. In addition, the TGI came to 9.83 µM in [7], 16 µM in [8], 32.9 µM in [9] and 24.1 µM in experiment [10].

With `CCOc1ccn(-c2ccc(F)cc2)c(=O)c1C(=O)Nc1ccc(Oc2ccnc(N)c2Cl)c(F)c1`, the GI50 was 14.6 µM in experiment [1]; 3.63 µM in [2]; 0.787 µM in experiment [3]; 11.8 µM in experiment [4]; 5.33 µM in [5]; 6.17 µM in experiment [6]. For the same compound, the GI50 in experiment [7] was 6.63 µM; in experiment [8], 13.8 µM; in experiment [9] it was 12.9 µM; in [10], 7.53 µM. Besides, the TGI was > 88.8 µM in experiment [1]; 36.9 µM in experiment [2]; 48.3 µM in [3]; 98 µM in experiment [4]; 19.3 µM in experiment [5]; 28.7 µM in experiment [6]. In addition, the TGI worked out at 82.3 µM in [7], 59.2 µM in experiment [8], 67 µM in experiment [9] and 34.1 µM in experiment [10].

For `CCc1nc2ccc(N=Nc3c(O)ccc4ccccc34)cc2[nH]1`, the TGI in experiment [1] was > 78 µM; in [2], 26.4 µM; in experiment [3], 43.5 µM; in experiment [4] it was 59.7 µM; in experiment [5] it was 28.8 µM; in experiment [6], 24.7 µM. Moreover, the TGI in experiment [7] stood at 44.1 µM; in [8], 36.2 µM; in [9], 34.9 µM; in experiment [10], 35.4 µM.

For `Cc1cc(Nc2cc(N3CCN(C)CC3)nc(/C=C/c3ccccc3)n2)n[nH]1`, the GI50 in experiment [1] was 1.69 µM; in [2], 0.412 µM; in experiment [3], 0.707 µM; in [4], 1.77 µM; in experiment [5], 0.334 µM; in experiment [6], 0.103 µM. For the same compound, the GI50 was 0.542 µM in [7], 1.12 µM in experiment [8], 0.866 µM in experiment [9] and 0.718 µM in [10]. In addition, the TGI in [1] is > 3.14 µM; in [2] it was > 10 µM; in experiment [3], > 4.64 µM; in experiment [4], > 9.46 µM; in experiment [5] it was 1.51 µM; in experiment [6] it was 2.19 µM. In addition, the TGI was > 6.77 µM in experiment [7], > 8.73 µM in experiment [8], > 9.04 µM in [9] and 2.05 µM in [10].

`CC[C@@H](C)/C=C(C)/C=C/C(=O)c1c(O)c(-c2ccc(O)cc2)cn(O)c1=O`: the GI50 in [1] was 0.504 µM; in experiment [2], 0.314 µM; in experiment [3], 0.703 µM; in [4], 0.609 µM; in experiment [5], 0.288 µM; in experiment [6] it was 0.25 µM. Also, the GI50 is 3.22 µM in [7], 0.487 µM in experiment [8], 2.71 µM in [9] and 0.369 µM in experiment [10]. Also, the TGI in experiment [1] worked out at 18 µM; in experiment [2], 13.1 µM; in experiment [3], 9.99 µM; in [4] it was 28.5 µM; in experiment [5] it was 7.64 µM; in experiment [6], 4.82 µM. Also, the TGI in experiment [7] is 11.4 µM; in [8] it was 16.1 µM; in experiment [9] it was 20.8 µM; in [10] it was 5.83 µM.

Regarding `NS(=O)(=O)c1cc(C(=O)O)c(O)c2ccccc12`, the TGI in experiment [1], in experiment [2], in experiment [3], in [4], in [5] and in experiment [6] was > 100 µM each time. Further, the TGI in experiment [7], in [8], in experiment [9] and in [10] was > 100 µM in each case.

Turning to `Cc1cc(Nc2nc(N[C@@H](C)c3ncc(F)cn3)ncc2Cl)n[nH]1`, the GI50 in experiment [1] is > 62 µM; in [2], 55.7 µM; in experiment [3], 35.6 µM; in experiment [4] it was 22.8 µM; in [5], 13.8 µM; in [6] it was 4.15 µM. In addition, the GI50 was 27.8 µM in [7], 9.81 µM in experiment [8], 38.4 µM in experiment [9] and 14.9 µM in experiment [10]. Moreover, the TGI in [1], in [2], in experiment [3], in experiment [4], in experiment [5] and in experiment [6] was > 100 µM each time. Moreover, the TGI in [7] was > 100 µM; in experiment [8], > 100 µM; in [9] it was > 100 µM; in experiment [10], 58 µM.

Turning to `Cn1cc(-c2cnn3c(N)c(Br)c(C4CCCNC4)nc23)cn1` (stereo not given), the GI50 in experiment [1] was 4.7 µM; in experiment [2] it was 0.631 µM; in experiment [3], 0.527 µM; in [4], 19.6 µM; in experiment [5], 2.71 µM; in experiment [6], 0.326 µM. Also, the GI50 in experiment [7] was 4.19 µM; in experiment [8] it was 0.922 µM; in experiment [9], 6.96 µM; in experiment [10], 0.285 µM. Also, the TGI is 27.2 µM in experiment [1]; 38.9 µM in experiment [2]; > 44.4 µM in experiment [3]; > 100 µM in experiment [4]; 18.9 µM in [5]; 16.9 µM in experiment [6]. For the same compound, the TGI in [7] was > 73 µM; in [8] it was 32.5 µM; in experiment [9] it was > 73 µM; in experiment [10], 3.88 µM.
